Experimental data published in BindingDB's records for doi:10.1021/acsmedchemlett.9b00552 (Bristol-Myers Squibb Research & Development, 2020).

Biological target: T1, TGF-beta receptor type-1 (Homo sapiens, UniProt P36897)
T1 sequence (P36897 whole entry): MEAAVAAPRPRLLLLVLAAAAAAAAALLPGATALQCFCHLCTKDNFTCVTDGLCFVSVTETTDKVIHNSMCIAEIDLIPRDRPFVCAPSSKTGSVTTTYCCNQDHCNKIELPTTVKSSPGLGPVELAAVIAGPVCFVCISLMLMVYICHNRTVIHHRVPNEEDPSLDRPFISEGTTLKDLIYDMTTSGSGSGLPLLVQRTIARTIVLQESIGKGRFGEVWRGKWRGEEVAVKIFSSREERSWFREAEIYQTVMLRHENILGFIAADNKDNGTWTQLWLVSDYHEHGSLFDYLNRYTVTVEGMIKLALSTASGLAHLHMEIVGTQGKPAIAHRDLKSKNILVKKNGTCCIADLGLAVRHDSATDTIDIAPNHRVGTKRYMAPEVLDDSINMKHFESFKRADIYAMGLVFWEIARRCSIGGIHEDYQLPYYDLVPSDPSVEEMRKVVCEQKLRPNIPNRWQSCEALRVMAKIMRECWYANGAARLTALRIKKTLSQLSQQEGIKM
Experiment: Inhibition of TGFbetaR1 in TGFbeta-stimulated mink Mv1Lu cells assessed as reduction in SMAD nuclear translocation preincubated for 1 hr followed by TGFbeta-stimulation for 15 mins by array scan based method

Row | IC50 | Compound
1 | 0.42 µM | Cc1cccc(-c2ncn(CC(F)F)c2-c2ccc3nccn3c2)n1
2 | 0.35 µM | N#Cc1cnc2ccc(-c3c(-c4ccc(F)c(Cl)c4)ncn3CCO)nn12 [6-(4-(3-chloro-4-fluorophenyl)-1-(2-hydroxyethyl)-1H-imidazol-5-yl)imidazo[1,2-b]pyridazine-3-carbonitrile]
